In publication PMC12040169 (PLOS Biology, 2025):

assay: in vitro; conditions: human, hela cells, % viability

Row | Structure (SMILES) | viability at 28.5 h, 10 µM
1 | Cc1cc(NS(=O)(=O)c2ccc(NC(=S)NCC3CCCO3)cc2)no1 (stereo not shown) [CBK268160] | 101%
2 | CN1CCN(S(=O)(=O)c2ccc(NC(=O)Cc3ccc([N+](=O)[O-])cc3)cc2)CC1 [CBK268161] | 121%
3 | Cc1cc(C(=O)Nc2ccc(S(=O)(=O)Nc3onc(C)c3C)cc2)no1 [CBK268166] | 95.3%
4 | NC(=O)c1cc(Cc2ccccc2)sc1NC(=O)c1cccnc1 [CBK268168] | 96.2%
5 | S=C(NCCN1CCCCC1)NCc1ccco1 [CBK268171] | 107%
6 | O=C(Nc1ccc(S(=O)(=O)NCCc2ccccc2)cc1)c1ccncc1 [CBK268172] | 90.3%
7 | O=S(=O)(c1cccc2nsnc12)N1CCN(C2CCCCC2)CC1 [CBK268173] | 96.9%
8 | CN1CCN(NC(=O)COc2ccc(Br)cc2Cl)CC1 [CBK268174] | 92.6%
9 | COC(=O)c1cc(-c2ccccc2)sc1NC(=O)c1cnccn1 [CBK268175] | 93.5%
10 | O=C(O)C1CC=CCC1C(=O)Nc1ccc(S(=O)(=O)N2CCCc3ccccc32)cc1 (stereo not shown) [CBK268179] | 94.8%
11 | O=C(NCc1ccco1)c1c(NC(=O)C2CCCO2)sc2c1CCC2 (stereo not shown) [CBK268180] | 94.4%
12 | Cc1sc(NC(=O)c2ccc3c(c2)OCCO3)c(C(=O)NCc2cccnc2)c1C [CBK268181] | 90.8%
13 | CCOc1cccc(C(=O)NN2CCN(C)CC2)c1 [CBK268184] | 97.7%
14 | O=C(Nc1ccc(S(=O)(=O)NCc2ccccc2)cc1)Nc1ccc2c(c1)OCO2 [CBK268186] | 95.1%
15 | CS(=O)(=O)N(CC(=O)Nc1ccc(S(=O)(=O)N2CCCCC2)cc1)c1ccc2c(c1)OCO2 [CBK268189] | 96.4%
16 | N#Cc1c(C(F)(F)F)cc(-c2ccccc2)nc1SCCC(=O)Nc1ccccc1O [CBK268191] | 103%
17 | COc1ccc(C2CC(c3ccccc3)=NN2c2ccc(S(N)(=O)=O)cc2)cc1OC (stereo not shown) [CBK268193] | 107%
18 | NS(=O)(=O)c1ccc(NCc2cc(Cl)ccc2OCc2ccc(F)cc2)cc1 [CBK268196] | 87.2%
19 | COc1ccc([N+](=O)[O-])cc1N(CC(=O)Nc1cccc2ccccc12)S(C)(=O)=O [CBK268197] | 84.2%
20 | Cc1c(Cl)cccc1NC(=O)CSCc1cc(=O)[nH][nH]1 [CBK268199] | 98.1%
21 | Cc1ccc(-c2cc(C(=O)NCCCn3ccnc3)no2)cc1 [CBK268200] | 102%

Row | Structure (SMILES) | viability at 28.5 h, 10 µM
22 | CCn1c(SCC(=O)Nc2ccccc2[N+](=O)[O-])nnc1-c1cc(Br)ccc1O [CBK268201] | 101%
23 | NS(=O)(=O)c1ccc(NC(=O)CSc2ccc3ccccc3c2)cc1 [CBK268203] | 89.8%
24 | c1csc(-c2nn3c(Cn4nnc5ccccc54)nnc3s2)c1 [CBK268204] | 87.7%
25 | COc1cc(NC(=O)Cc2cccc3ccccc23)c(C(=O)O)cc1OC [CBK268206] | 99.9%
26 | CN1CCN(CC(=O)Nc2sc3c(c2C(=O)NCc2ccccc2)CCCC3)CC1 [CBK268207] | 102%
27 | Cc1cc(NC(=O)c2nn3c(C(F)(F)F)cc(-c4ccccc4)nc3c2Cl)nn1CC(=O)N1CCOCC1 [CBK268209] | 105%
28 | Cc1ccc(S(=O)(=O)NCCOc2ccccc2)c(C)c1NS(C)(=O)=O [CBK268210] | 92.9%
29 | O=C(CSc1ncn(-c2ccccc2)n1)Nc1ccc2[nH]c(=O)[nH]c2c1 [CBK268212] | 106%
30 | Cc1cc2c(N3CCN(Cc4nc5ccccc5[nH]4)CC3)ncnc2s1 [CBK268213C] | 101%
31 | Cc1ccc(NS(=O)(=O)c2cc(C(=O)Nc3cccc(N(C)S(C)(=O)=O)c3)ccc2C)c(C)c1 [CBK268220] | 92.7%
32 | CCN1CCN(C(=O)CN(c2ccccc2)S(=O)(=O)N(C)C)CC1 [CBK268222] | 113%
33 | CCN1CCN(C(=O)c2ccc(C)c(S(=O)(=O)Nc3cccc(C)c3)c2)CC1 [CBK268226] | 109%
34 | O=C(Cc1cc(C(=O)O)c2ccccc2n1)Nc1ccccc1 [CBK268227] | 96.3%
35 | O=C(Cc1ccc(Br)cc1)Nc1cc(C(=O)O)cc(C(=O)O)c1 [CBK268228] | 88.8%
36 | Cc1ccc(Cl)cc1N1CCN(C(=O)COc2ccc(S(=O)(=O)Nc3ccc(F)cc3)cc2)CC1 [CBK268229] | 92.1%
37 | COc1ccc(S(=O)(=O)N2CCCC(C(=O)NCc3ccc4c(c3)OCO4)C2)cc1Cl (stereo not shown) [CBK268230] | 89.1%
38 | c1ccc(C2=Nn3c(Cn4nnc5ccccc54)nnc3SC2)cc1 [CBK268232] | 91.7%
39 | Nn1c(Cn2nnc3ccccc32)n[nH]c1=S [CBK268233] | 111%
40 | CN(C)CCn1c(C(=O)O)cc2ccccc21 [CBK268234C] | 110%
41 | c1nc(NCCCN2CCOCC2)c2c3c(sc2n1)CCCCC3 [CBK268236] | 91.2%
42 | O=C1CCCN1c1ccc(S(=O)(=O)N2CCN(c3ccccn3)CC2)cc1 [CBK268237] | 84.5%

Row | Structure (SMILES) | viability at 28.5 h, 10 µM
43 | Cc1cccc(-c2noc(CCC(=O)NCC3CCCO3)n2)c1 (stereo not shown) [CBK268241] | 118%
44 | Cc1cc(=O)[nH]c(SCCC(=O)O)n1 [CBK268242] | 106%
45 | O=C(COc1ccc(S(=O)(=O)N2CCCC2)cc1Cl)NCC1CCCO1 (stereo not shown) [CBK268243] | 86.6%
46 | O=S(=O)(NCC(c1ccccc1)n1cc(-c2ccccc2)nn1)c1ccccc1 (stereo not shown) [CBK268244] | 85.2%
47 | COc1ccc(-c2noc(CSc3nnc(-c4ccncc4)n3C)n2)cc1 [CBK268245] | 96.8%
48 | O=C(CSc1nc2ccccc2c(=O)[nH]1)Nc1ccc(Cl)c(C(=O)O)c1 [CBK268246] | 103%
49 | CC(=O)NCCc1nc2ccc(NC(=O)Cn3nc(C)c4ccccc4c3=O)cc2n1C [CBK268249] | 111%
50 | Brc1cccc(CSc2nnc(COc3ccccc3)n2Cc2ccccc2)c1 [CBK268250] | 113%
51 | O=C(COc1ccc(NS(=O)(=O)c2ccc3oc4cc([N+](=O)[O-])ccc4c3c2)cc1)N1CCOCC1 [CBK268252] | 100%
52 | CCN(CC)S(=O)(=O)c1ccc(Nc2nc3ccc(Cl)cc3n3cnnc23)cc1 [CBK268259] | 87.6%
53 | O=C(CSc1ncn(-c2ccccc2)n1)Nc1cc(Cl)cc(Cl)c1 [CBK268261] | 92%
54 | Cn1c(CN2CCN(C(=O)NC3CCCCC3)CC2)nc2cc([N+](=O)[O-])ccc21 [CBK268266] | 97.1%
55 | C[S+]([O-])CCC(NS(=O)(=O)c1ccccc1)C(=O)O (stereo not shown) [CBK268267] | 93.2%
56 | Cc1cc(/C=C(/C#N)c2cccc(F)c2)c(C)n1-c1ccc(S(N)(=O)=O)cc1 [CBK268268] | 99.9%
57 | O=[N+]([O-])c1nn(-c2ccc(Cl)cc2)[n+]([O-])c1NCc1ccccn1 [CBK268270] | 96.6%
58 | c1ccc(-c2nn3c(Cn4nnc5ccccc54)nnc3s2)cc1 [CBK268271] | 106%
59 | Cc1cc(S(=O)(=O)NCc2ccccc2)ccc1OCC(=O)N1CCN(C)CC1 [CBK268274] | 86.4%
60 | Cn1cnnc1SCC(C)(C)NS(=O)(=O)c1ccccc1 [CBK268276] | 96.4%
61 | O=C(NCCSCc1ccco1)Nc1cccc(Cl)c1 [CBK268277] | 99.2%
62 | CCOc1ccc(NC(=O)CSc2nc3nc(C)cc(C)n3n2)cc1 [CBK268278] | 107%
63 | CC(C)(CSc1ncccn1)NS(=O)(=O)c1ccccc1 [CBK268282] | 88.3%

Row | Structure (SMILES) | viability at 28.5 h, 10 µM
64 | O=C(O)c1ccc2c(c1)C(=O)N(c1nc(-c3cccnc3)n[nH]1)C2=O [CBK268284] | 100%
65 | O=C(Cc1cccc2ccccc12)Nc1ccc(Br)cc1C(=O)O [CBK268286] | 99.2%
66 | CC(C)(Oc1ccc(Br)cc1)C(=O)NCCOc1ccccc1 [CBK268287] | 114%
67 | CS(=O)(=O)Nc1ccc(C(=O)Nc2ccc(S(=O)(=O)N3CCCCCC3)cc2)cc1 [CBK268288] | 107%
68 | O=C(CSc1nnc(Cc2cccs2)n1-c1ccccc1)c1c[nH]c2ccccc12 [CBK268290] | 88%
69 | Cc1ccc(-c2nc3ncccc3o2)cc1NC(=S)NC(=O)c1ccc(-c2cccc([N+](=O)[O-])c2)o1 [CBK268294] | 102%
70 | Cc1ccc(-n2cnnn2)c(S(=O)(=O)N2CCOCC2)c1 [CBK268297] | 102%
71 | O=C(CSc1nnc(Nc2ccccc2)n1-c1ccccc1)Nc1ccc2c(c1)COC2=O [CBK268298] | 105%
72 | CCc1cc2c(=O)c(-c3nc(C)cs3)c(C)oc2cc1OCc1ccc([N+](=O)[O-])cc1 [CBK268305] | 101%
73 | O=S(=O)(NCc1ccc2c(c1)OCO2)c1ccc2c(c1)oc1ccccc12 [CBK268308] | 104%
74 | CCCn1c(Nc2nc3ccccc3n2C)nc2ccccc21 [CBK268310] | 85.7%
75 | COc1cc(NC(=O)c2cc3nc(-c4cccs4)cc(C(F)(F)Cl)n3n2)c(C(C)=O)cc1OC [CBK268312] | 100%
76 | O=C(NC(C(=O)O)c1ccccc1)NC12CC3CC(CC(C3)C1)C2 (stereo not shown) [CBK268313] | 109%
77 | O=[N+]([O-])c1nn(-c2ccc3c(c2)OCCO3)[n+]([O-])c1NCCN1CCN(c2ccccc2F)CC1 [CBK268314] | 109%
78 | CCOc1ccc(-n2c(SCc3nc(-c4ccc(C)cc4)no3)nnc2-c2ccncc2)cc1 [CBK268315] | 98.3%
79 | CCc1ccc2occ(CC(=O)Nc3ccc(C(=O)OC)cc3)c2c1 [CBK268318] | 105%
80 | Clc1ccc(-c2nn3c4cc(N5CCNCC5)ccc4nc3c3ccccc23)cc1 [CBK268319] | 102%
81 | O=C(CSc1nc(Nc2ccccc2)nc(N2CCOCC2)n1)Nc1ccc2c(c1)OCO2 [CBK268320] | 96.5%
82 | Cn1c(CN2CCN(S(=O)(=O)c3ccccc3)CC2)nc2cc([N+](=O)[O-])ccc21 [CBK268321] | 102%
83 | CC(CO)(CO)NCc1ccc(-c2ccccc2)cc1 [CBK268325C] | 78.9%
84 | O=C(COc1ccc(S(=O)(=O)N2CCCCC2)cc1)NCc1cccnc1 [CBK268328] | 97.6%

same assay, conditions: human, hela cells, % viability, bulk resorufin, single well

Row | Structure (SMILES) | viability at 28.5 h, 10 µM
85 | CC(C)NC(=O)Cn1cc(C(=O)COc2ccccc2)c2ccccc21 [CBK268317] | 82.6%
